In brackets after ≈: the same amount, converted by molar mass. Where a SMILES comes first, the peptide text is derived from it. Bridges are numbered along the chain shown (N, C = ends). Roman numbers before positions name the chains, in order. [ ]: non-standard residue; d: D form. NMeV = CN[C@H](C(=O)O)C(C)C; Hiv = CC(C)[C@H](O)C(=O)O; dDab = NCC[C@@H](N)C(=O)O; hSer = N[C@@H](CCO)C(=O)O; Nle = CCCC[C@H](N)C(=O)O; Dab = NCC[C@H](N)C(=O)O; Abu = CC[C@H](N)C(=O)O; Dap = NC[C@H](N)C(=O)O
Columns and labels:
male ICR mice = experiment: Tolerability in a mouse model (Maximum Tolerated Dose assay); format: in vivo; conditions: groups of 3
Procedure, shortened: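 Peptides in 0.9% NaCl (pH 6.5-7.6) given s.c. at 30 or 40 mg/kg, twice 12 h apart, to groups of 3 male ICR mice (23±3 g). Acute toxic signs (mortality, convulsions, tremors, sedation) and autonomic effects (diarrhea, salivation, piloerection) observed for 30 min after each dose.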

[1] = test system: Klebsiella pneumoniae SSI #3010; format: cell-based; conditions: SSI #3010
Procedure, shortened: (§1)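 Standard CLSI microdilution testing: bacterial suspensions standardized against 0.5 McFarland to about 10^6 CFU/mL in MH-II broth meet serially halved peptide concentrations in broth containing 0.002% polysorbate 80; incubation lasts 18-20 h at 35° C before the MIC is scored.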

[2] = test system: Pseudomonas aeruginosa ATCC 27853; format: cell-based; conditions: ATCC 27853
Procedure, shortened: as §1

[3] = test system: Acinetobacter baumannii DSM 30008; format: cell-based; conditions: DSM 30008
Procedure, shortened: as §1

[4] = test system: Escherichia coli ATCC 25922; format: cell-based; conditions: ATCC 25922
Procedure, shortened: as §1

Escherichia coli 926415 = format: cell-based; conditions: 926415
Procedure, shortened: as §1

[5] = test system: Acinetobacter baumannii 872842; format: cell-based; conditions: 872842
Procedure, shortened: as §1

[6] = test system: Klebsiella pneumoniae 968733; format: cell-based; conditions: 968733
Procedure, shortened: as §1

[7] = test system: Enterobacter cloacae 848840; format: cell-based; conditions: 848840
Procedure, shortened: as §1

[8] = test system: human red blood cells (hRBC); experiment: Hemolysis; format: cell-based; conditions: red cells of human, 1 h, 200
Procedure, shortened: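 Washed fresh human RBC (20% v/v) incubated with peptide at 200 μg/mL for 1 h at 37° C with shaking. Supernatant OD540 measured after dilution, blank corrected; percent hemolysis = OD540 peptide / OD540 of 2% Triton X-100 lysis × 100, PBS with 10% water as 0%.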

[9] = 2 × 40 mg/kg s.c. at a 12-hr interval
[10] = 2 × 30 mg/kg s.c. at a 12-hr interval

Row | SMILES | Mortality and dose (male ICR mice; [9]) | Klebsiella pneumoniae SSI #3010 MIC [1] | Pseudomonas aeruginosa ATCC 27853 MIC [2] | Acinetobacter baumannii DSM 30008 MIC [3] | Escherichia coli ATCC 25922 MIC [4] | MIC (Escherichia coli 926415) | MIC [5] | MIC [6] | MIC [7] | Hemolysis at 200 μg/mL [8] | Mortality and dose (male ICR mice; [10]) | MIC [1] | MIC [2] | MIC [3] | MIC [4]
1 | CC(C)C[C@@H]1NC(=O)[C@@H](CC(C)C)NC(=O)[C@H](CCN)NC(=O)[C@@H](NC(=O)[C@H](CN)NC(=O)[C@@H](NC(=O)[C@H](CCN)NC(=O)CC[C@@H]2NC(=O)[C@H](CCN)NC(=O)[C@H](Cc3ccc(O)cc3)NC(=O)[C@@H](NC(=O)[C@@H](O)C(C)C)CSSC[C@@H](C(=O)N[C@@H](CO)C(=O)N[C@H](C)C(N)=O)NC(=O)[C@H](C(C)C)NC(=O)[C@H](CO)NC(=O)[C@H](Cc3c[nH]c4ccccc34)NC(=O)[C@H](CO)NC(=O)[C@@H](CCN)NC2=O)[C@@H](C)O)CCNC(=O)[C@H]([C@@H](C)O)NC(=O)[C@H](CCN)NC(=O)[C@H](CCN)NC1=O [Ex. 379] (I: H-[Hiv]CY[Dab]E[dDab]SWSVCS[dA]-NH2 / II: [Dab]T[Dap][Dab][Dab][dL]L[Dab][Dab]T; disulfide I:2-I:11; amide I:5-II:N; lactam II:4-II:C) | 0/3 died at 2 × 40 mg/kg | 0.0625 µg/mL | 0.125 µg/mL | 0.0625 µg/mL | 0.03125 µg/mL | 0.25 µg/mL (≈ 0.103 µM) | 0.125 µg/mL (≈ 0.0515 µM) | 0.25 µg/mL (≈ 0.103 µM) | 1 µg/mL (≈ 0.412 µM) | <1% |  |  |  |  | 
2 | CCCC[C@H](NC(C)=O)C(=O)N[C@H]1CSSC[C@@H](C(=O)N[C@H](C(N)=O)[C@@H](C)O)NC(=O)[C@H]([C@@H](C)CC)NC(=O)[C@H](CO)NC(=O)[C@H](Cc2c[nH]c3ccccc23)NC(=O)[C@H](CCN)NC(=O)[C@@H](CCN)NC(=O)[C@H](CCC(=O)N[C@@H](CCN)C(=O)N[C@H](C(=O)N[C@@H](CN)C(=O)N[C@H]2CCNC(=O)[C@H]([C@@H](C)O)NC(=O)[C@H](CCN)NC(=O)[C@H](CCN)NC(=O)[C@H](CC)NC(=O)[C@@H](CC(C)C)NC(=O)[C@H](CCN)NC2=O)[C@@H](C)O)NC(=O)[C@H](CO)NC(=O)[C@H](Cc2ccc(O)cc2)NC1=O [Ex. 259] (I: Ac-[Nle]CYSE[dDab][Dab]WSICT-NH2 / II: [Dab]T[Dap][Dab][Dab][dL][Abu][Dab][Dab]T; disulfide I:2-I:11; amide I:5-II:N; lactam II:4-II:C) |  |  |  |  |  | 0.125 µg/mL (≈ 0.0518 µM) | 0.03125 µg/mL (≈ 0.013 µM) | 0.0625 µg/mL (≈ 0.0259 µM) | 0.0625 µg/mL (≈ 0.0259 µM) | 2% | 0/3 died at 2 × 30 mg/kg | 0.03125 µg/mL (≈ 0.013 µM) | 0.0625 µg/mL (≈ 0.0259 µM) | 0.01562 µg/mL (≈ 0.00647 µM) | 0.01562 µg/mL (≈ 0.00647 µM)
3 | CN[C@H](C(=O)N[C@H]1CSSC[C@@H](C(=O)N[C@@H](CO)C(=O)O)NC(=O)[C@H](C(C)C)NC(=O)[C@H](CO)NC(=O)[C@H](Cc2c[nH]c3ccccc23)NC(=O)[C@H](CCO)NC(=O)[C@@H](CCN)NC(=O)[C@H](CCC(=O)N[C@@H](CCN)C(=O)N[C@H](C(=O)N[C@@H](CCN)C(=O)N[C@H]2CCNC(=O)[C@H]([C@@H](C)O)NC(=O)[C@H](CCN)NC(=O)[C@H](CCN)NC(=O)[C@H](CC(C)C)NC(=O)[C@@H](CC(C)C)NC(=O)[C@H](CCN)NC2=O)[C@@H](C)O)NC(=O)[C@H](CCN)NC(=O)[C@H](Cc2ccc(O)cc2)NC1=O)C(C)C [Ex. 42] (I: H-[NMeV]CY[Dab]E[dDab][hSer]WSVCS-OH / II: [Dab]T[Dab][Dab][Dab][dL]L[Dab][Dab]T; disulfide I:2-I:11; amide I:5-II:N; lactam II:4-II:C; C-terminus assumed) |  |  |  |  |  | 0.5 µg/mL (≈ 0.208 µM) | 1 µg/mL (≈ 0.417 µM) | 2 µg/mL (≈ 0.833 µM) | 4 µg/mL (≈ 1.67 µM) | <1% | 0/3 died at 2 × 30 mg/kg | 0.25 µg/mL (≈ 0.104 µM) | 0.25 µg/mL (≈ 0.104 µM) | 0.5 µg/mL (≈ 0.208 µM) | 0.125 µg/mL (≈ 0.0521 µM)
4 | CC[C@H](C)[C@@H]1NC(=O)[C@H](CO)NC(=O)[C@H](Cc2c[nH]c3ccccc23)NC(=O)[C@H](CO)NC(=O)[C@@H](CCN)NC(=O)[C@H](CCC(=O)N[C@@H](CCN)C(=O)N[C@H](C(=O)N[C@@H](CN)C(=O)N[C@H]2CCNC(=O)[C@H]([C@@H](C)O)NC(=O)[C@H](CCN)NC(=O)[C@H](CCN)NC(=O)[C@H]([C@@H](C)O)NC(=O)[C@@H](CC(C)C)NC(=O)[C@H](CCN)NC2=O)[C@@H](C)O)NC(=O)[C@H](CCN)NC(=O)[C@H](Cc2ccc(O)cc2)NC(=O)[C@@H](NC(=O)[C@@H](NC(C)=O)C(C)C)CSSC[C@@H](C(=O)N[C@@H](CO)C(=O)N[C@H](C)C(N)=O)NC1=O [Ex. 380] (I: Ac-VCY[Dab]E[dDab]SWSICS[dA]-NH2 / II: [Dab]T[Dap][Dab][Dab][dL]T[Dab][Dab]T; disulfide I:2-I:11; amide I:5-II:N; lactam II:4-II:C) | 0/3 died at 2 × 40 mg/kg | 0.0625 µg/mL | 0.125 µg/mL | 0.0625 µg/mL | 0.03125 µg/mL | 0.125 µg/mL (≈ 0.0506 µM) | 0.25 µg/mL (≈ 0.101 µM) | 0.5 µg/mL (≈ 0.202 µM) | 0.125 µg/mL (≈ 0.0506 µM) | <1% |  |  |  |  | 
5 | CC(=O)N[C@H](C(=O)N[C@H]1CSSC[C@@H](C(=O)N[C@@H](CO)C(N)=O)NC(=O)[C@H](C(C)C)NC(=O)[C@H](CO)NC(=O)[C@H](Cc2c[nH]c3ccccc23)NC(=O)[C@H](CO)NC(=O)[C@@H](CCN)NC(=O)[C@H](CCC(=O)N[C@@H](CCN)C(=O)N[C@H](C(=O)N[C@@H](CN)C(=O)N[C@H]2CCNC(=O)[C@H]([C@@H](C)O)NC(=O)[C@H](CCN)NC(=O)[C@H](CCN)NC(=O)[C@H]([C@@H](C)O)NC(=O)[C@@H](CC(C)C)NC(=O)[C@H](CCN)NC2=O)[C@@H](C)O)NC(=O)[C@H](CCN)NC(=O)[C@H](Cc2ccc(O)cc2)NC1=O)C(C)C [Ex. 331] (I: Ac-VCY[Dab]E[dDab]SWSVCS-NH2 / II: [Dab]T[Dap][Dab][Dab][dL]T[Dab][Dab]T; disulfide I:2-I:11; amide I:5-II:N; lactam II:4-II:C) | 0/3 died at 2 × 40 mg/kg | 0.0625 µg/mL | 0.125 µg/mL | 0.125 µg/mL | 0.0625 µg/mL | 0.5 µg/mL (≈ 0.209 µM) | 0.25 µg/mL (≈ 0.105 µM) | 0.5 µg/mL (≈ 0.209 µM) | 0.25 µg/mL (≈ 0.105 µM) | <1% |  |  |  |  | 
6 | CC(=O)N[C@H](C(=O)N[C@H]1CSSC[C@@H](C(=O)N[C@@H](CO)C(N)=O)NC(=O)[C@H](C(C)C)NC(=O)[C@H](CO)NC(=O)[C@H](Cc2c[nH]c3ccccc23)NC(=O)[C@H](CCO)NC(=O)[C@@H](CCN)NC(=O)[C@H](CCC(=O)N[C@@H](CCN)C(=O)N[C@H](C(=O)N[C@@H](CN)C(=O)N[C@H]2CCNC(=O)[C@H]([C@@H](C)O)NC(=O)[C@H](CCN)NC(=O)[C@H](CCN)NC(=O)[C@H]([C@@H](C)O)NC(=O)[C@@H](CC(C)C)NC(=O)[C@H](CCN)NC2=O)[C@@H](C)O)NC(=O)[C@H](CCN)NC(=O)[C@H](Cc2ccc(O)cc2)NC1=O)C(C)C [Ex. 343] (I: Ac-VCY[Dab]E[dDab][hSer]WSVCS-NH2 / II: [Dab]T[Dap][Dab][Dab][dL]T[Dab][Dab]T; disulfide I:2-I:11; amide I:5-II:N; lactam II:4-II:C) | 0/3 died at 2 × 40 mg/kg | 0.0625 µg/mL | 0.125 µg/mL | 0.0625 µg/mL | 0.03125 µg/mL | 0.25 µg/mL (≈ 0.104 µM) | 0.25 µg/mL (≈ 0.104 µM) | 0.5 µg/mL (≈ 0.208 µM) | 0.125 µg/mL (≈ 0.0521 µM) | <1% |  |  |  |  | 
7 | CC(=O)N[C@H](C(=O)N[C@H]1CSSC[C@@H](C(=O)N[C@@H](CO)C(N)=O)NC(=O)[C@H](C(C)C)NC(=O)[C@H](CO)NC(=O)[C@H](Cc2c[nH]c3ccccc23)NC(=O)[C@H](CCC(=O)N[C@@H](CCN)C(=O)N[C@H](C(=O)N[C@@H](CN)C(=O)N[C@H]2CCNC(=O)[C@H]([C@@H](C)O)NC(=O)[C@H](CCN)NC(=O)[C@H](CCN)NC(=O)[C@H](CC(C)C)NC(=O)[C@@H](CC(C)C)NC(=O)[C@H](CCN)NC2=O)[C@@H](C)O)NC(=O)[C@@H](CCN)NC(=O)[C@H](Cc2c[nH]cn2)NC(=O)[C@H](CCN)NC(=O)[C@H](Cc2ccc(O)cc2)NC1=O)C(C)C [Ex. 365] (I: Ac-VCY[Dab]H[dDab]EWSVCS-NH2 / II: [Dab]T[Dap][Dab][Dab][dL]L[Dab][Dab]T; disulfide I:2-I:11; amide I:7-II:N; lactam II:4-II:C) | 0/3 died at 2 × 40 mg/kg | 0.0625 µg/mL | 0.125 µg/mL | 0.0625 µg/mL | 0.03125 µg/mL | 0.125 µg/mL (≈ 0.051 µM) | 0.0625 µg/mL (≈ 0.0255 µM) | 0.125 µg/mL (≈ 0.051 µM) | 0.0625 µg/mL (≈ 0.0255 µM) | <1% |  |  |  |  | 

From patent US11629171B2, “Beta-hairpin peptidomimetics” (POLYPHOR AG, priority 2017, dated 2023)
